Here are results for eight molecules from article PMC3602277 (Bioorganic & medicinal chemistry, 2013).

SMILES strings stand for the structures.

Series [1] deals with A431 cancer cells.
For series [2], the system named is A431 cancer cells. Briefly: A431 cytotoxicity, CYQUANT cell proliferation assay. As to conditions: ratio of IC50 vs cisplatin 23.
For the next series, the target named is VEGFR-2 (Homo sapiens, UniProt P35968). Briefly: Phosphotyrosine ELISA cytoblot, VEGFR-2 kinase inhibition in whole cells. The format is cell-based. As to conditions: for fold less active than standard 20 in VEGFR-2 inhibition assay: ratio of IC50 vs semaxanib 20.
For series [3], the target named is EGFR (Homo sapiens, UniProt P00533). Briefly: Phosphotyrosine ELISA cytoblot, EGFR kinase inhibition in whole cells. The format is cell-based. For orientation: In an ELISA, binding on a coated surface is turned into a signal by an enzyme label.
The next series has as its target PDGFR-β (Homo sapiens, UniProt P09619). Kind of series: Phosphotyrosine ELISA cytoblot, PDGFR-β kinase inhibition in whole cells. It is filed as cell-based.
In series [4] the test system is EGFR. As to conditions: read-out: EGFR IC50; cited from earlier work.

Chain of VEGFR-2 (P35968 20-1356): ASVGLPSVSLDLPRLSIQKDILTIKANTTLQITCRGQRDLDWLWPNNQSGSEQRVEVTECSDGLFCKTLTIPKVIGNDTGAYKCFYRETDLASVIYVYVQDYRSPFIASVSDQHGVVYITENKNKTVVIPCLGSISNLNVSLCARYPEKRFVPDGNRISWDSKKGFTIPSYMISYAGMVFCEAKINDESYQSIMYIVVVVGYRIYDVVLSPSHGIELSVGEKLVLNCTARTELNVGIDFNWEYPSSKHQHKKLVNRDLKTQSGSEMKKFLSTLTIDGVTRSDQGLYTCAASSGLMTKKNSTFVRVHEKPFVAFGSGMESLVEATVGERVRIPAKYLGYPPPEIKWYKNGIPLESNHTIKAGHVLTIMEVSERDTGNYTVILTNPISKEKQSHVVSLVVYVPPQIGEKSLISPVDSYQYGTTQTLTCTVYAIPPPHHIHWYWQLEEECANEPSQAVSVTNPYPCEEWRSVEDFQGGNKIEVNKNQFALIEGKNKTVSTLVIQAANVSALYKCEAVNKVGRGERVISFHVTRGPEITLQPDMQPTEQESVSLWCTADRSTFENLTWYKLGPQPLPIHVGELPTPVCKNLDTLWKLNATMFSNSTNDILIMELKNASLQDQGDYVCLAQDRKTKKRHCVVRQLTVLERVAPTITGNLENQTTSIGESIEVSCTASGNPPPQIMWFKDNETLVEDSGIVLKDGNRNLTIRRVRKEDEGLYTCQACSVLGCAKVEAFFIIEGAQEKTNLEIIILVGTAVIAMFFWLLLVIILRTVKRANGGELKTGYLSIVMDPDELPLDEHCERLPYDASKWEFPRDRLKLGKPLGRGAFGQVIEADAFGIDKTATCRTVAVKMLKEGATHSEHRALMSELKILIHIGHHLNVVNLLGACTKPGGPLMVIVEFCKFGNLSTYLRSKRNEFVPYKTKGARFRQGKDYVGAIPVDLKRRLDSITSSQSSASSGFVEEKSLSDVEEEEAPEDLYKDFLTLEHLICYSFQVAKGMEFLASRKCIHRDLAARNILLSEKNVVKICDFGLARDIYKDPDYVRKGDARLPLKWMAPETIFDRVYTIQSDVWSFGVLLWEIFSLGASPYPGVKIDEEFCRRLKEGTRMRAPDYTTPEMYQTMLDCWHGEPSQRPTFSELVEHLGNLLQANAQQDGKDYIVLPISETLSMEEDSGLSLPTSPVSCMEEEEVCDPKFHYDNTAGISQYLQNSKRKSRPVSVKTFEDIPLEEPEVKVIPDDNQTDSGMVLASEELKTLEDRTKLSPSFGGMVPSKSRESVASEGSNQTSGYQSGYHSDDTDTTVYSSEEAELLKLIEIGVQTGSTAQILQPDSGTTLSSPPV
Chain of EGFR (Homo sapiens, UniProt P00533) (P00533 25-1210): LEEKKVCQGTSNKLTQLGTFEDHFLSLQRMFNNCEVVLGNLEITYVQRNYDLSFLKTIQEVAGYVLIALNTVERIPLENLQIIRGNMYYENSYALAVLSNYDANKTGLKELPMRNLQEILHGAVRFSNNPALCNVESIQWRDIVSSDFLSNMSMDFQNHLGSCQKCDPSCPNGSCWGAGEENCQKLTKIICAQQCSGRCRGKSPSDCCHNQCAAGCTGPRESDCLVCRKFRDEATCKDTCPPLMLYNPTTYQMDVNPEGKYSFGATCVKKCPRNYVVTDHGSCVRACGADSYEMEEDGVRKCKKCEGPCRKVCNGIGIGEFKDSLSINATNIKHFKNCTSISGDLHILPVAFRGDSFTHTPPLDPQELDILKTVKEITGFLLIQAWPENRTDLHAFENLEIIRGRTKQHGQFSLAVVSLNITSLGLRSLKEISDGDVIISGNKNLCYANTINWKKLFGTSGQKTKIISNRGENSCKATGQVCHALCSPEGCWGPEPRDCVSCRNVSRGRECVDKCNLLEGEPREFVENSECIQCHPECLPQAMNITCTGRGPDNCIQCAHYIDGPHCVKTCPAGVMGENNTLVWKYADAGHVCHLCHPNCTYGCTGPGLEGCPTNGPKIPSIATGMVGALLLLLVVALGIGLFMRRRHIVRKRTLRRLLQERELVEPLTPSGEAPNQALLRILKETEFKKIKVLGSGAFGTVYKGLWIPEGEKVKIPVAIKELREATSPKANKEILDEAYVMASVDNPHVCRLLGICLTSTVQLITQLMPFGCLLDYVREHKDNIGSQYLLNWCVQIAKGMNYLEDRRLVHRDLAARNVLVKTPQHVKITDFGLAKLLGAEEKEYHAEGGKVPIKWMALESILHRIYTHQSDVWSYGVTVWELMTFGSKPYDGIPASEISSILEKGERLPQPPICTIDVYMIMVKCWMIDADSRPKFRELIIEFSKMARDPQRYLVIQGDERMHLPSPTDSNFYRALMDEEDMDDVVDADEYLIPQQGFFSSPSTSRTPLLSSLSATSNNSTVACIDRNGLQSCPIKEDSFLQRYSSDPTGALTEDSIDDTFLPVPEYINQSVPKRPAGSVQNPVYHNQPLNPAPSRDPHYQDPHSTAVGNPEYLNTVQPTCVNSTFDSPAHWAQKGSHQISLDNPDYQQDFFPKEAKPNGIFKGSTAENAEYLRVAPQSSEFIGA
Chain of PDGFR-β (P09619 33-1106): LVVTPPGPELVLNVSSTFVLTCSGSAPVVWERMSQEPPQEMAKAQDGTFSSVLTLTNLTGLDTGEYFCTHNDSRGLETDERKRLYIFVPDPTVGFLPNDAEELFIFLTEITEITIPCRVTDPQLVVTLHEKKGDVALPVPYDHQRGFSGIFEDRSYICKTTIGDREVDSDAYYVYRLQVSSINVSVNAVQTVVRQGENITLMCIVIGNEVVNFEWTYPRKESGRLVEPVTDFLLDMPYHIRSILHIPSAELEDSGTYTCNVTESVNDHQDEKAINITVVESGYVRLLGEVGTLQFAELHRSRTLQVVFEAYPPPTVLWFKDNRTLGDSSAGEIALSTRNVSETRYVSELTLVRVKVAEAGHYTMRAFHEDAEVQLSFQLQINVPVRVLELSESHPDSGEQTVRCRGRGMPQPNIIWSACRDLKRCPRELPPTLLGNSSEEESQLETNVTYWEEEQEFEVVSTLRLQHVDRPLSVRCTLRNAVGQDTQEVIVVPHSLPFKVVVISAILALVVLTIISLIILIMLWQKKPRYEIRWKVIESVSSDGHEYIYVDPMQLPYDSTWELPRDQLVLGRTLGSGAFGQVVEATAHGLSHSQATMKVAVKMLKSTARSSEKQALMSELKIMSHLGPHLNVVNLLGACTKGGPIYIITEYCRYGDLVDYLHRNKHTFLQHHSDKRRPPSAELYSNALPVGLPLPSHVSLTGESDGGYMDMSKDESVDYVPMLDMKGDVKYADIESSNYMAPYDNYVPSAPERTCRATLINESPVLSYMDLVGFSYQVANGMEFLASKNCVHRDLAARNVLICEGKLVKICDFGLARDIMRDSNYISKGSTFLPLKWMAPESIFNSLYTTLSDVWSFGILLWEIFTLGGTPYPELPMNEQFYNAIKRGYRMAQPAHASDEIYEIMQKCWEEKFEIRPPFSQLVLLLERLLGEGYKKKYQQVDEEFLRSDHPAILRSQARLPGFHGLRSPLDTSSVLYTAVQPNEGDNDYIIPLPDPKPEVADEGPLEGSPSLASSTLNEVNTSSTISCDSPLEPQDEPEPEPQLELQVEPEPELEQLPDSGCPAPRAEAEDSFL

As to `[NH2][Pt]([NH2])([Cl])[Cl]` [Cisplatin (23), cisplatin], the IC50 (commonly the concentration at which inhibition is half-maximal) with A431 cancer cells [1] amounted to 10.6 ± 2.9 µM.
For the molecule `CC(C)(C)C(=O)Nc1nc(Nc2ccc(Cl)cc2)c2c(n1)[nH]c1cccc(Cl)c12` [Compound 11, N-{5-chloro-4-[(4-chlorophenyl)amino]-9H-pyrimido[4,5-b]indol-2-yl}-2,2-dimethylpropanamide], in the series on A431 cancer cells [2], the “fold less potent than standard 23 in A431 cytotoxicity assay” value is 5 fold. Further, the “fold less active than standard 20 in VEGFR-2 inhibition assay” value on VEGFR-2 stood at 2 fold.
Turning to `CC(C)(C)C(=O)Nc1nc(Nc2cccc(F)c2)c2c(n1)[nH]c1cccc(Cl)c12` [Compound 13, N-{5-chloro-4-[(3-fluorophenyl)amino]-9H-pyrimido[4,5-b]indol-2-yl}-2,2-dimethylpropanamide], the “fold less active than standard 20 in VEGFR-2 inhibition assay” value on VEGFR-2 is “about 2.5 fold”. Besides, on EGFR [3] (ratio of IC50 vs PD153035 21), the “fold less potent than standard 21 in EGFR inhibition assay” value amounted to 150 fold. Also, on EGFR [3] (ratio of IC50 vs erlotinib), the “fold less active than erlotinib in EGFR inhibition assay” value was 25 fold.
For the molecule `COc1cccc(Nc2nc(NC(=O)C(C)(C)C)nc3[nH]c4cccc(Cl)c4c23)c1` [Compound 14, N-{5-chloro-4-[(3-methoxyphenyl)amino]-9H-pyrimido[4,5-b]indol-2-yl}-2,2-dimethylpropanamide], on VEGFR-2, the “fold less active than standard 20 in VEGFR-2 inhibition assay” value is about 3.5 fold.
For `COc1cccc(Nc2nc(N)nc3[nH]c4cccc(Cl)c4c23)c1` [Compound 8, 5-chloro-N^4-(3-methoxyphenyl)-9H-pyrimido[4,5-b]indole-2,4-diamine], at PDGFR-β (ratio of IC50 vs DMBI 22), the “fold less active than standard 22 in PDGFR-β inhibition assay” value is recorded as “about 13.5 fold”. The “fold less active than erlotinib in PDGFR-β inhibition assay” value on PDGFR-β (ratio of IC50 vs erlotinib) is recorded as 4 fold. Moreover, on VEGFR-2 (7 vs 13, 8 vs 14), the “fold less active than corresponding 2-amino pivaloyl compound, VEGFR-2” value is on record as about 1.7 fold. In addition, the “fold less active than standard 20 in VEGFR-2 inhibition assay” value on VEGFR-2 came to 7 fold.
For the molecule `Nc1nc(Nc2ccc(Cl)cc2)c2c(n1)[nH]c1cccc(Cl)c12` [Compound 5, 5-chloro-N^4-(4-chlorophenyl)-9H-pyrimido[4,5-b]indole-2,4-diamine], the “fold less potent than standard 23 in A431 cytotoxicity assay” value with A431 cancer cells [2] was 4 fold. In addition, at VEGFR-2 (ratio of IC50 vs erlotinib), the “fold more potent than erlotinib in VEGFR-2 inhibition assay” value turned out to be 9.4 fold. For the same molecule, the “fold more potent than sunitinib in VEGFR-2 inhibition assay” value at VEGFR-2 (ratio of IC50 vs sunitinib) was determined as 1.4 fold. For the same molecule, the “potency relative to standard 20 in VEGFR-2 inhibition assay” value on VEGFR-2 (vs semaxanib 20) is “equipotent”.
As for `CC(C)c1ccc(Nc2nc(NC(=O)C(C)(C)C)nc3[nH]c4cccc(Cl)c4c23)cc1` [Compound 10, N-{5-chloro-4-[(4-isopropylphenyl)amino]-9H-pyrimido[4,5-b]indol-2-yl}-2,2-dimethylpropanamide], the “fold less active than standard 20 in VEGFR-2 inhibition assay” value on VEGFR-2 is about 4 fold.
With `Clc1cccc(Nc2ncnc3[nH]c4ccccc4c23)c1` [Compound 1], the IC50 in the series on EGFR [4] is 0.006 µM.
